# Test results reported in PMC10088252.
# Where “and” joins values, the source holds several entries; their conditions need not be identical. Equal values may be shown once. Read-outs that look alike come from different tables or passages of the source.
# Assays:
# [1] = Plasma PK from sparse data, population PK analysis without PK modeling; assay type: in vivo, human; details: 28 days
# Protocol: A total of 21 patients in Part A were included in PKAS. […] The mean T1/2 of M1 ranged from 19.8 h to 21.8 h. For M2-2, its mean T1/2 was not able to estimate in the 450 mg QD and 600 mg QD cohorts, and 21.3 h in the 300 mg QD cohort. The MP ratio calculated based on AUCtau ranged from 6.0 to 9.1 for M1, and ranged from 4.1 to 5.7 for M2-2.
# [2] = tested on: locally advanced or metastatic NSCLC harboring c-MET overexpression or MET exon 14 skipping mutation; assay type: in vivo, human
# Protocol: Patients enrolled in this study were divided into two parts. […] Patients with pre-existing c-MET overexpression at hospital diagnosis were also included in Part A. In Part B, patients in the 400 mg bis in die (BID) dose cohort, blood and tissue samples were collected to perform NGS to determine the MET exon 14 skipping mutation. Patients harboring pre-existing MET exon 14 skipping mutation at hospital diagnosis were also enrolled into Part B. […] Statistical analyses were performed using SAS version 9.4 (SAS Institute, Cary, NC, USA). Age was expressed as median (range), and categorical variables were expressed as frequency (percentage). The 95% CIs of ORR and DCR were calculated using Clopper-Pearson method. […] No imputation method was performed for missing data.
compound,measurement,setting,value
O=C(Nc1ccc(Oc2ccnc3c2CCN3)c(F)c1)c1c[nH]cc(-c2ccc(F)cc2)c1=O,"AUCtau, mean (SD)",[1]; 300 mg QD (n=4),7420.0 (3120.0) h×ng/mL
same,"CLss/F, mean (SD)",[1]; 300 mg QD (n=4),46.2 (18.7) L/h
same,"Cmax,ss, mean (SD)",[1]; 300 mg QD (n=4),601.0 (189.0) ng/mL
same,"Cmin,ss, mean (SD)",[1]; 300 mg QD (n=4),89.1 (56.3) ng/mL
same,"Ctrough, mean (SD)",[1]; 300 mg QD (n=4),94.1 (79.0) ng/mL
same,"T1/2, mean (SD)",[1]; 300 mg QD (n=4),9.1 (1.7) h
same,"Tmax,ss, mean (SD)",[1]; 300 mg QD (n=4),4.0 (2.0) h
same,"Vz,ss/F, mean (SD)",[1]; 300 mg QD (n=4),685.0 (196.0) L
same,"AUCtau, mean (SD)",[1]; 450 mg QD (n=5),6350.0 (2710.0) h×ng/mL
same,"CLss/F, mean (SD)",[1]; 450 mg QD (n=5),77.9 (33.2) L/h
same,"Cmax,ss, mean (SD)",[1]; 450 mg QD (n=5),470.0 (83.3) ng/mL
same,"Cmin,ss, mean (SD)",[1]; 450 mg QD (n=5),151.0 (77.5) ng/mL
same,"Ctrough, mean (SD)",[1]; 450 mg QD (n=5),167.0 (100.5) ng/mL
same,"T1/2, mean (SD)",[1]; 450 mg QD (n=5),10.3 (NE) h
same,"Tmax,ss, mean (SD)",[1]; 450 mg QD (n=5),5.1 (2.0) h
same,"Vz,ss/F, mean (SD)",[1]; 450 mg QD (n=5),1500.0 (NE) L
same,"AUCtau, mean (SD)",[1]; 600 mg QD (n=2),6980.0 (NE) h×ng/mL
same,"CLss/F, mean (SD)",[1]; 600 mg QD (n=2),86.0 (NE) L/h
same,"Cmax,ss, mean (SD)",[1]; 600 mg QD (n=2),758.0 (NE) ng/mL
same,"Cmin,ss, mean (SD)",[1]; 600 mg QD (n=2),80.3 (NE) ng/mL
same,"Ctrough, mean (SD)",[1]; 600 mg QD (n=2),201.1 (166.4) ng/mL
same,"T1/2, mean (SD)",[1]; 600 mg QD (n=2),9.6 (NE) h
same,"Tmax,ss, mean (SD)",[1]; 600 mg QD (n=2),3.0 (NE) h
same,"Vz,ss/F, mean (SD)",[1]; 600 mg QD (n=2),1180.0 (NE) L
same,BOR CR,[2]; 300 mg QD (n=12),0 n (%)
same,BOR NE (patients not evaluable),[2]; 300 mg QD (n=12),0 n (%)
same,BOR PD,[2]; 300 mg QD (n=12),7 (58.3) n (%)
same,BOR PR,[2]; 300 mg QD (n=12),0 n (%)
same,BOR SD,[2]; 300 mg QD (n=12),5 (41.7) n (%)
same,DCR (95% CI),[2]; 300 mg QD (n=12),"41.7% and 41.7 (15.2, 72.3) %"
same,ORR (95% CI),[2]; 300 mg QD (n=12),"0 (0, 26.5) %"
same,"PFS, median (95% CI)",[2]; 300 mg QD (n=12),"1.9 months and 1.9 (1.9, 5.6) months"
same,BOR CR,[2]; 400 mg BID (n=4),0 n (%)
same,BOR PD,[2]; 400 mg BID (n=4),0 n (%)
same,BOR PR,[2]; 400 mg BID (n=4),0 n (%)
same,BOR CR,[2]; 450 mg QD (n=12),0 n (%)
same,BOR PD,[2]; 450 mg QD (n=12),6 (50.0) n (%)
same,BOR PR,[2]; 450 mg QD (n=12),0 n (%)
same,BOR SD,[2]; 450 mg QD (n=12),4 (33.3) n (%)
same,DCR (95% CI),[2]; 450 mg QD (n=12),"33.3% and 33.3 (9.9, 65.1) %"
same,ORR (95% CI),[2]; 450 mg QD (n=12),"0 (0, 26.5) %"
same,"OS, median (95% CI)",[2]; 450 mg QD (n=12),"9.3 months and 9.3 (2.6, NE) months"
same,"PFS, median (95% CI)",[2]; 450 mg QD (n=12),"1.9 months and 1.9 (1.1, 3.8) months"
same,BOR CR,[2]; 600 mg QD (n=10),0 n (%)
same,BOR PD,[2]; 600 mg QD (n=10),2 (20.0) n (%)
same,BOR SD,[2]; 600 mg QD (n=10),3 (30.0) n (%)
same,DCR (95% CI),[2]; 600 mg QD (n=10),"40.0% and 40.0 (12.2, 73.8) %"
same,ORR (95% CI),[2]; 600 mg QD (n=10),"10.0 (0.3, 44.5) %"
same,"PFS, median (95% CI)",[2]; 600 mg QD (n=10),"1.8 months and 1.8 (1.2, 3.9) months"
same,ORR,"[2]; Part A (n=34), c-MET overexpression",2.9%
same,DCR (95% CI),"[2]; Part B, 400 mg BID (n=4)","75.0% and 75.0 (19.4, 99.4) %"
same,ORR (95% CI),"[2]; Part B, 400 mg BID (n=4)","0% and 0 (0, 60.2) %"
same,"PFS, median (95% CI)","[2]; Part B, 400 mg BID (n=4)","3.4 months and 3.4 (3.2, 3.7) months"
same,BOR CR,[2]; Total (n=38),0 n (%)
same,BOR PD,[2]; Total (n=38),15 (39.5) n (%)
same,BOR SD,[2]; Total (n=38),15 (39.5%) n (%) and 15 (39.5) n (%)
same,DCR (95% CI),[2]; Total (n=38),"42.1% and 42.1 (26.3, 59.2) %"
same,ORR (95% CI),[2]; Total (n=38),"2.6% and 2.6 (0.1, 13.8) %"
same,"OS, median (95% CI)",[2]; Total (n=38),"10.3 months and 10.3 (7.3, NE) months"
same,"PFS, median (95% CI)",[2]; Total (n=38),"1.9 months and 1.9 (1.9, 3.7) months"
